Some test systems named below: A498 renal; ACHN renal; DU-145 prostate; HT29 colon; MDA-MB-435; OVCAR-8 ovarian; RXF 393 renal; SF-539 CNS; T-47D breast; U251 CNS.
Common to all, as to experiment: DTP human tumour cell line panel, 48 h

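In this assay, cells in 96-well plates receive the compound at five concentrations for 48 hours. Endpoints are linearly interpolated between the surrounding concentrations. The concentration for full growth arrest is given as TGI.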

Consider `CC(=O)[C@@]1(C)CC2(CCN(C)CC2)OC1C` (stereo not given in full), for which the TGI in the assay on A498 renal, in the assay on ACHN renal, in the assay with DU-145 prostate, in the assay on HT29 colon, in the assay with MDA-MB-435 and in the assay on OVCAR-8 ovarian was over 100 µM throughout. Besides, the TGI in the assay on RXF 393 renal, with SF-539 CNS, in the assay on T-47D breast and with U251 CNS was over 100 µM each time.
Take `N#CCc1n[nH]c(Cc2ccccc2)n1`: the TGI with A498 renal, with ACHN renal, with DU-145 prostate, with HT29 colon, in the assay with MDA-MB-435 and in the assay with OVCAR-8 ovarian was over 100 µM throughout. The TGI in the assay with RXF 393 renal, in the assay on SF-539 CNS, with T-47D breast and in the assay with U251 CNS was over 100 µM each time.
Consider `O=C(c1ccco1)N1CCCN(C(=O)c2ccco2)C1=S`, for which the TGI in the assay on A498 renal, with ACHN renal, in the assay on DU-145 prostate, with HT29 colon, with MDA-MB-435 and with OVCAR-8 ovarian was over 100 µM in each case. Also, the TGI in the assay on RXF 393 renal is over 100 µM; with SF-539 CNS it was over 100 µM; in the assay with T-47D breast, 93.3 µM; in the assay with U251 CNS, over 100 µM.
Consider `CCCN(CCCC(NC(C)=O)C(=O)NCc1ccccc1)C(=O)N(CCCl)N=O` (stereo not given), for which the TGI in the assay with A498 renal was 31.1 µM; with ACHN renal it was 37.5 µM; in the assay with DU-145 prostate, over 100 µM; with HT29 colon it was over 66.7 µM; in the assay with MDA-MB-435, over 100 µM; with OVCAR-8 ovarian, 12.7 µM. Moreover, the TGI with RXF 393 renal is 35 µM; with SF-539 CNS, 5.95 µM; with T-47D breast it was over 100 µM; in the assay with U251 CNS it was 20.1 µM.
As to `CCSc1sc(=Nc2ccc(N=c3sc(C)c(SC)s3)cc2)sc1-c1ccc(C)cc1`, the TGI in the assay on A498 renal, in the assay with ACHN renal, in the assay on DU-145 prostate, in the assay with HT29 colon, with MDA-MB-435 and with OVCAR-8 ovarian was over 100 µM throughout. Moreover, the TGI in the assay on RXF 393 renal, in the assay with SF-539 CNS, with T-47D breast and in the assay with U251 CNS was over 100 µM each time.
As to `C[C@]12CC[C@H]3[C@@H](CC=C4C[C@@H](N5CCCC5)CC[C@@]43C)[C@@H]1C[C@H](N1CCOCC1)[C@@H]2O`, the TGI in the assay with A498 renal, in the assay with ACHN renal, in the assay with DU-145 prostate, in the assay with HT29 colon, in the assay on MDA-MB-435 and with OVCAR-8 ovarian was over 100 µM in each case. Moreover, the TGI in the assay on RXF 393 renal, in the assay with SF-539 CNS, with T-47D breast and in the assay on U251 CNS was over 100 µM each time.
Consider `CN(C)CCNC(=O)c1cccc2c(NCCN(C)C)c3ccccc3nc12`, for which the TGI in the assay with A498 renal amounted to 4.74 µM; with ACHN renal it was 9.59 µM; in the assay on DU-145 prostate, 28.2 µM; with HT29 colon, 5.34 µM; in the assay on MDA-MB-435 it was 7.58 µM; in the assay with OVCAR-8 ovarian, 12.4 µM. The TGI was 14.2 µM in the assay on RXF 393 renal, 11.3 µM with SF-539 CNS, over 83.6 µM with T-47D breast and 8.72 µM in the assay with U251 CNS.
In the case of `Nc1nc(Cl)c(N)c(NCC2(CO)CC(OCc3ccccc3)C2)n1` (stereo not given), the TGI in the assay on A498 renal, in the assay on ACHN renal, in the assay on DU-145 prostate, with HT29 colon, in the assay on MDA-MB-435 and in the assay on OVCAR-8 ovarian was over 100 µM throughout. For the same compound, the TGI with RXF 393 renal, with SF-539 CNS, in the assay with T-47D breast and in the assay with U251 CNS was over 100 µM each time.
`[N-]=[N+]=C1N=CN=C1c1ncn[nH]1`: the TGI in the assay on A498 renal, in the assay with ACHN renal, in the assay with DU-145 prostate, in the assay on HT29 colon, in the assay on MDA-MB-435 and in the assay on OVCAR-8 ovarian was over 100 µM throughout. The TGI in the assay with RXF 393 renal is over 100 µM; in the assay on SF-539 CNS, 52.2 µM; with T-47D breast it was 83 µM; in the assay with U251 CNS, over 100 µM.
For `O=C1CC2(c3ccccc3)ON=C(c3ccccc3)N2c2ccccc2N1` (stereo not given), the TGI with A498 renal is over 100 µM; in the assay on ACHN renal, over 100 µM; in the assay on DU-145 prostate it was over 100 µM; in the assay with HT29 colon, over 100 µM; in the assay with MDA-MB-435 it was 53.2 µM; in the assay with OVCAR-8 ovarian, over 100 µM. Moreover, the TGI in the assay with RXF 393 renal, in the assay with SF-539 CNS, with T-47D breast and in the assay with U251 CNS was over 100 µM each time.
As to `O=C1NC(SSC2=NNC3(C(=O)N2)c2ccccc2-c2ccccc23)=NNC12c1ccccc1-c1ccccc12`, the TGI with A498 renal, in the assay on ACHN renal, in the assay with DU-145 prostate, in the assay on HT29 colon, in the assay with MDA-MB-435 and with OVCAR-8 ovarian was over 10 µM throughout. In addition, the TGI in the assay with RXF 393 renal, in the assay on SF-539 CNS, in the assay on T-47D breast and with U251 CNS was over 10 µM throughout.
In the case of `COC(=O)CCC(=O)NC1=C(Nc2ccc(OC)cc2)C(=O)c2ccccc2C1=O`, the TGI in the assay on A498 renal turned out to be 33.6 µM; in the assay with ACHN renal, 54.5 µM; in the assay with DU-145 prostate, 26.9 µM; in the assay on HT29 colon it was 30.1 µM; in the assay on MDA-MB-435, 3.53 µM; with OVCAR-8 ovarian, 75.6 µM. Also, the TGI came out at 67 µM in the assay on RXF 393 renal, 27.9 µM in the assay on SF-539 CNS, 40.4 µM with T-47D breast and 57.5 µM in the assay with U251 CNS.
In the case of `Nn1c(COc2cccc(OCc3n[nH]c(=S)n3N)c2)n[nH]c1=S`, the TGI in the assay on A498 renal, in the assay on ACHN renal, with DU-145 prostate, with HT29 colon, with MDA-MB-435 and with OVCAR-8 ovarian was over 100 µM each time. For the same compound, the TGI in the assay on RXF 393 renal, with SF-539 CNS, with T-47D breast and in the assay on U251 CNS was over 100 µM in each case.
On to `CC[C@]12C=CCN3CC[C@@]4(c5cc(Br)c(OC)cc5N(C)[C@H]4[C@@](O)(C(=O)NN)[C@@H]1O)[C@@H]32`, for which the TGI in the assay on A498 renal, with ACHN renal, in the assay with DU-145 prostate, with HT29 colon, with MDA-MB-435 and in the assay on OVCAR-8 ovarian was over 100 µM throughout. Moreover, the TGI is 99.2 µM with RXF 393 renal, 69.3 µM with SF-539 CNS, over 100 µM in the assay with T-47D breast and over 100 µM in the assay on U251 CNS.
With `CC1(C)N=C(C(N)=O)c2ncn(N)c2N1`, the TGI in the assay with A498 renal, in the assay on ACHN renal, in the assay with DU-145 prostate, with HT29 colon, with MDA-MB-435 and with OVCAR-8 ovarian was over 100 µM each time. Further, the TGI with RXF 393 renal, in the assay on SF-539 CNS, with T-47D breast and in the assay on U251 CNS was over 100 µM in each case.
`Cc1c(Cl)nc(Nc2nc3ccccc3[nH]2)nc1Cl`: the TGI in the assay on A498 renal is over 100 µM; with ACHN renal it was over 100 µM; with DU-145 prostate it was over 100 µM; with HT29 colon it was 89 µM; in the assay on MDA-MB-435, over 100 µM; in the assay on OVCAR-8 ovarian it was over 100 µM. For the same compound, the TGI in the assay with RXF 393 renal, in the assay with SF-539 CNS, in the assay with T-47D breast and in the assay on U251 CNS was over 100 µM in each case.
Consider `CCOC(=O)c1ccc(Nc2c3c(nc4ccccc24)CCCC3)cc1`, for which the TGI in the assay on A498 renal is over 92.2 µM; in the assay with ACHN renal, over 100 µM; in the assay on DU-145 prostate it was over 100 µM; in the assay on HT29 colon it was over 100 µM; in the assay with MDA-MB-435, over 100 µM; in the assay with OVCAR-8 ovarian it was over 100 µM. Besides, the TGI in the assay with RXF 393 renal, in the assay on SF-539 CNS, with T-47D breast and in the assay on U251 CNS was over 100 µM in each case.
Consider `CCOC(=O)C1=CNC(C(=O)OCC)C1c1cccn1-c1ccc(Cl)cc1[N+](=O)[O-]` (stereo not given), for which the TGI was over 100 µM with A498 renal; over 100 µM with ACHN renal; over 100 µM in the assay on DU-145 prostate; 30.8 µM in the assay on HT29 colon; 58.7 µM in the assay on MDA-MB-435; 90.6 µM in the assay on OVCAR-8 ovarian. The TGI is 36.7 µM in the assay with RXF 393 renal, 30.8 µM in the assay on SF-539 CNS, over 100 µM with T-47D breast and 41.1 µM with U251 CNS.
For the compound `S=C(NC1=NCC(CN2CCN(c3ccccc3)CC2)O1)Nc1ccccc1` (stereo not given), the TGI in the assay on A498 renal, in the assay with ACHN renal, in the assay on DU-145 prostate, in the assay with HT29 colon, in the assay with MDA-MB-435 and in the assay on OVCAR-8 ovarian was over 100 µM throughout. Besides, the TGI with RXF 393 renal, in the assay with SF-539 CNS, in the assay with T-47D breast and with U251 CNS was over 100 µM in each case.
With `O=CN1CCN(C(=O)c2ccc(Cl)cc2Cl)C1=S`, the TGI with A498 renal, in the assay on ACHN renal, in the assay with DU-145 prostate, in the assay with HT29 colon, in the assay on MDA-MB-435 and in the assay with OVCAR-8 ovarian was over 100 µM in each case. Moreover, the TGI in the assay with RXF 393 renal, in the assay on SF-539 CNS, with T-47D breast and in the assay with U251 CNS was over 100 µM each time.
In the case of `COc1ccc2nc3c([N+](=O)[O-])ccc4c3c(c2c1)NCCN4CCO`, the TGI in the assay on A498 renal worked out at 2 µM; with ACHN renal it was 2.25 µM; with DU-145 prostate, 5.34 µM; with HT29 colon, 2.02 µM; in the assay on MDA-MB-435 it was 1.79 µM; with OVCAR-8 ovarian, 2.01 µM. The TGI in the assay with RXF 393 renal worked out at 1.78 µM; in the assay with SF-539 CNS, 1.56 µM; in the assay with T-47D breast it was 3.68 µM; with U251 CNS it was 1.85 µM.

Source of the values: PubChem BioAssay (NCI).
